Experimental data published in patent publication US9114171B2, “Racecadotril liquid compositions” (McNeil-PPC, Inc., priority 2012, dated 2015).

Test: Stability of Racecadotril in Beta-HPCD at 40° C., pH 3.6/4.0/4.5 (HPLC)
Type: physicochemical
Experimental: Test Methods Sample Preparation: • 1. Pipet 1 mL of Racecadotril solution into a 100 mL volumetric flask (V.F.) • 2. Dilute to volume with the same buffer used in the solution preparation. • 3. Further dilute the sample solution to about 0.1 mg/mL if necessary. […] Parameters may be modified to optimize chromatography. • The assay of Racecadotril is determined by using the external standard injected. The degradation products levels are determined by % peak area relative to the Racecadotril peak. Chromatographic Conditions (European Pharmacopoeia Racecadotril Method): [table] Gradient Table: [table] Mobil Phase A: Phosphate buffer, pH 2.5 (Buffer prep: dissolve 1 g of potassium dihydrogen phosphate in water, adjust to pH 2.5 with phosphoric acid, dilute to 1000 mL with water) Mobil Phase B: 100% Acetonitrile Stability of Racecadotril in Beta-Hydroxypropyl-Cyclodextrin (Beta-HPCD) at 40° C.

[1] = Acetate, pH 3.6, 40° C., 1 week
[2] = Acetate, pH 3.6, 40° C., 2 week
[3] = Acetate, pH 3.6, 40° C., 3 week
[4] = Acetate, pH 3.6, 40° C., 4 week
[5] = Acetate, pH 3.6, 40° C., 6 week
[6] = Acetate, pH 3.6, 40° C., 8 week
[7] = Acetate, pH 3.6, 40° C., Initial
[8] = Acetate, pH 4.0, 40° C., 1 week
[9] = Acetate, pH 4.0, 40° C., 2 week
[10] = Acetate, pH 4.0, 40° C., 3 week
[11] = Acetate, pH 4.0, 40° C., 4 week
[12] = Acetate, pH 4.0, 40° C., 6 week
[13] = Acetate, pH 4.0, 40° C., 8 week
[14] = Acetate, pH 4.0, 40° C., Initial
[15] = Acetate, pH 4.5, 40° C., 1 week
[16] = Acetate, pH 4.5, 40° C., 2 week
[17] = Acetate, pH 4.5, 40° C., 3 week
[18] = Acetate, pH 4.5, 40° C., 4 week
[19] = Acetate, pH 4.5, 40° C., 6 week
[20] = Acetate, pH 4.5, 40° C., 8 week
[21] = Acetate, pH 4.5, 40° C., Initial
[22] = Citrate, pH 3.6, 40° C., 1 week
[23] = Citrate, pH 3.6, 40° C., 2 week
[24] = Citrate, pH 3.6, 40° C., 3 week
[25] = Citrate, pH 3.6, 40° C., 4 week
[26] = Citrate, pH 3.6, 40° C., 6 week
[27] = Citrate, pH 3.6, 40° C., 8 week
[28] = Citrate, pH 3.6, 40° C., Initial
[29] = Citrate, pH 4.0, 40° C., 1 week
[30] = Citrate, pH 4.0, 40° C., 2 week
[31] = Citrate, pH 4.0, 40° C., 3 week
[32] = Citrate, pH 4.0, 40° C., 4 week
[33] = Citrate, pH 4.0, 40° C., 6 week
[34] = Citrate, pH 4.0, 40° C., 8 week
[35] = Citrate, pH 4.0, 40° C., Initial
[36] = Citrate, pH 4.5, 40° C., 1 week
[37] = Citrate, pH 4.5, 40° C., 2 week
[38] = Citrate, pH 4.5, 40° C., 3 week
[39] = Citrate, pH 4.5, 40° C., 4 week
[40] = Citrate, pH 4.5, 40° C., 6 week
[41] = Citrate, pH 4.5, 40° C., 8 week
[42] = Citrate, pH 4.5, 40° C., Initial

Benz Alcohol [1]: 0.69%
Impurity C [1]: 0.93%
Impurity G [1]: 1.17%
RAC [1]: 97.21%
Thiorphan [1]: 0.00%
Benz Alcohol [2]: 1.40%
Impurity C [2]: 1.87%
Impurity G [2]: 1.74%
RAC [2]: 94.88%
Thiorphan [2]: 0.11%
Benz Alcohol [3]: 2.13%
Impurity C [3]: 2.78%
Impurity G [3]: 1.93%
RAC [3]: 93.01%
Thiorphan [3]: 0.14%
Benz Alcohol [4]: 2.84%
Impurity C [4]: 3.56%
Impurity G [4]: 3.00%
RAC [4]: 90.15%
Thiorphan [4]: 0.30%
Benz Alcohol [5]: 4.33%
Impurity C [5]: 5.17%
Impurity G [5]: 3.82%
RAC [5]: 85.75%
Thiorphan [5]: 0.57%
Benz Alcohol [6]: 5.78%
Impurity C [6]: 6.33%
Impurity G [6]: 5.28%
RAC [6]: 80.68%
Thiorphan [6]: 1.00%
Benz Alcohol [7]: 0.00%
Impurity C [7]: 0.00%
Impurity G [7]: 0.07%
RAC [7]: 99.93%
Thiorphan [7]: 0.00%
Benz Alcohol [8]: 0.70%
Impurity C [8]: 0.93%
Impurity G [8]: 1.36%
RAC [8]: 97.01%
Thiorphan [8]: 0.00%
Benz Alcohol [9]: 1.39%
Impurity C [9]: 1.82%
Impurity G [9]: 1.70%
RAC [9]: 95.02%
Thiorphan [9]: 0.07%
Benz Alcohol [10]: 2.09%
Impurity C [10]: 2.83%
Impurity G [10]: 2.66%
RAC [10]: 92.23%
Thiorphan [10]: 0.19%
Benz Alcohol [11]: 2.84%
Impurity C [11]: 3.52%
Impurity G [11]: 3.62%
RAC [11]: 89.50%
Thiorphan [11]: 0.38%
Benz Alcohol [12]: 4.28%
Impurity C [12]: 5.16%
Impurity G [12]: 5.67%
RAC [12]: 83.98%
Thiorphan [12]: 0.71%
Benz Alcohol [13]: 5.37%
Impurity C [13]: 6.20%
Impurity G [13]: 8.46%
RAC [13]: 78.53%
Thiorphan [13]: 1.19%
Benz Alcohol [14]: 0.00%
Impurity C [14]: 0.00%
Impurity G [14]: 0.00%
RAC [14]: 100.00%
Thiorphan [14]: 0.00%
Benz Alcohol [15]: 0.02%
Impurity C [15]: 0.21%
Impurity G [15]: 3.17%
RAC [15]: 96.33%
Thiorphan [15]: 0.02%
Benz Alcohol [16]: 0.40%
Impurity C [16]: 0.40%
Impurity G [16]: 6.50%
RAC [16]: 92.61%
Thiorphan [16]: 0.04%
Benz Alcohol [17]: 0.59%
Impurity C [17]: 0.58%
Impurity G [17]: 9.43%
RAC [17]: 89.29%
Thiorphan [17]: 0.06%
Benz Alcohol [18]: 0.79%
Impurity C [18]: 0.72%
Impurity G [18]: 11.84%
RAC [18]: 86.50%
Thiorphan [18]: 0.11%
Benz Alcohol [19]: 1.14%
Impurity C [19]: 1.04%
Impurity G [19]: 17.32%
RAC [19]: 80.25%
Thiorphan [19]: 0.20%
Benz Alcohol [20]: 1.51%
Impurity C [20]: 1.25%
Impurity G [20]: 21.73%
RAC [20]: 75.06%
Thiorphan [20]: 0.36%
Benz Alcohol [21]: 0.02%
Impurity C [21]: 0.02%
Impurity G [21]: 0.21%
RAC [21]: 99.68%
Thiorphan [21]: 0.01%
Benz Alcohol [22]: 0.79%
Impurity C [22]: 0.98%
Impurity G [22]: 1.78%
RAC [22]: 96.45%
Thiorphan [22]: 0.00%
Benz Alcohol [23]: 1.72%
Impurity C [23]: 2.30%
Impurity G [23]: 3.81%
RAC [23]: 92.01%
Thiorphan [23]: 0.13%
Benz Alcohol [24]: 2.59%
Impurity C [24]: 3.36%
Impurity G [24]: 5.52%
RAC [24]: 88.22%
Thiorphan [24]: 0.31%
Benz Alcohol [25]: 3.38%
Impurity C [25]: 4.23%
Impurity G [25]: 7.38%
RAC [25]: 84.51%
Thiorphan [25]: 0.47%
Benz Alcohol [26]: 5.09%
Impurity C [26]: 6.13%
Impurity G [26]: 9.72%
RAC [26]: 77.91%
Thiorphan [26]: 1.11%
Benz Alcohol [27]: 6.64%
Impurity C [27]: 7.54%
Impurity G [27]: 12.47%
RAC [27]: 71.51%
Thiorphan [27]: 1.80%
Benz Alcohol [28]: 0.00%
Impurity C [28]: 0.00%
Impurity G [28]: 0.09%
RAC [28]: 99.91%
Thiorphan [28]: 0.00%
Benz Alcohol [29]: 0.89%
Impurity C [29]: 1.23%
Impurity G [29]: 1.95%
RAC [29]: 95.93%
Thiorphan [29]: 0.00%
Benz Alcohol [30]: 1.41%
Impurity C [30]: 1.82%
Impurity G [30]: 3.47%
RAC [30]: 93.19%
Thiorphan [30]: 0.11%
Benz Alcohol [31]: 2.36%
Impurity C [31]: 2.82%
Impurity G [31]: 4.79%
RAC [31]: 89.81%
Thiorphan [31]: 0.21%
Benz Alcohol [32]: 2.79%
Impurity C [32]: 3.43%
Impurity G [32]: 6.57%
RAC [32]: 86.78%
Thiorphan [32]: 0.40%
Benz Alcohol [33]: 4.19%
Impurity C [33]: 4.98%
Impurity G [33]: 9.24%
RAC [33]: 80.70%
Thiorphan [33]: 0.85%
Benz Alcohol [34]: 5.54%
Impurity C [34]: 6.22%
Impurity G [34]: 11.26%
RAC [34]: 75.46%
Thiorphan [34]: 1.42%
Benz Alcohol [35]: 0.00%
Impurity C [35]: 0.00%
Impurity G [35]: 0.00%
RAC [35]: 100.00%
Thiorphan [35]: 0.00%
Benz Alcohol [36]: 0.22%
Impurity C [36]: 0.18%
Impurity G [36]: 3.15%
RAC [36]: 96.44%
Thiorphan [36]: 0.01%
Benz Alcohol [37]: 0.40%
Impurity C [37]: 0.36%
Impurity G [37]: 6.04%
RAC [37]: 93.19%
Thiorphan [37]: 0.03%
Benz Alcohol [38]: 0.59%
Impurity C [38]: 0.52%
Impurity G [38]: 8.66%
RAC [38]: 90.20%
Thiorphan [38]: 0.06%
Benz Alcohol [39]: 0.79%
Impurity C [39]: 0.62%
Impurity G [39]: 11.16%
RAC [39]: 87.41%
Thiorphan [39]: 0.10%
Benz Alcohol [40]: 1.14%
Impurity C [40]: 0.90%
Impurity G [40]: 15.86%
RAC [40]: 82.05%
Thiorphan [40]: 0.17%
Benz Alcohol [41]: 1.51%
Impurity C [41]: 1.11%
Impurity G [41]: 19.95%
RAC [41]: 77.34%
Thiorphan [41]: 0.29%
Benz Alcohol [42]: 0.02%
Impurity C [42]: 0.01%
Impurity G [42]: 0.19%
RAC [42]: 99.71%
Thiorphan [42]: 0.01%
SMILES: CC(=O)SCC(Cc1ccccc1)C(=O)NCC(=O)OCc1ccccc1 (racemic) [Racecadotril]
